Data as given in US12594317B2 (priority 2020, dated 2026).

System: HEK293 cell line stably expressing ACE2 receptor infected by COVID-19 pseudovirus
Type: cell-based, human
Details: positive control group, 10 μL of 100 μM solution per well, 48 h

## CCN(CC)CCCC(C)Nc1ccnc2cc(Cl)ccc12 (stereo not shown) [chloroquine phosphate]
  RLU/RLUc value (ratio of fluorescence value of test group to average fluorescence intensity of negative control group): 0.05±0.01
